Measured values from patent US11779565B2, “Small organic molecules for use in the treatment of neuroinflammatory disorders” (THE MEDICAL RESEARCH, INFRASTRUCTURE AND HEALTH SERVICES …, priority 2017, dated 2023).
Entries after “also recorded” stand apart in the source; their conditions may differ.

What was measured:
P19 cells = assay: In vitro differentiation assay of P19 cells (MAP-2 positive neurons); type: cell-based, murine; details: for MAP-2+ cells: day 8; for effect on neuronal phenotype (number of MAP-2+ cells) vs. RA+BMP-2: RA + rhBMP-2 + SM at 0.625, 1.25 and 2.5 μM
Procedure: P19 cells were grown in a-minimum essential medium (aMEM) (Gibco) containing 7.5% calf serum, 2.5% fetal calf serum, and 0.4 μl/ml penicillin—streptomycin (Gibco), at 37° C., 5% CO2. Cells were replenished with fresh medium every 48 h.
The medium, including RA, BMP supplements and SMs, was replenished after 48 h. After 4 days, aggregates which formed during RA treatment were dispersed enzymatically (0.05% v/v trypsin-0.02% v/v EDTA) and mechanically and plated in tissue culture grade dishes. At this stage, cells were cultured in RA-, BMP- and SM-free medium, which was refreshed every 48 h. MAP-2 positive neurons were examined at day 8 (i.e., day 4 post-RA treatment) by immunofluorescence. Briefly, at day 7, cells were re-cultured in 24 well-plates with cover slips at a final concentration of 5×10^4 cells/well. On day 8, cells were washed with PBS, fixed with PFA 4% for 15 min, permeabilized with 0.5% Triton Tx, blocked with 10% FCS, 0.1% BSA and 0.05% Tween for 30 min, and stained with MAP2 rabbit mAb (1:100, D5G1, Cell Signaling) for 1 hr. The second antibody step was performed by labeling with Alexa Fluor® 488-conjugated IgG antibody to rabbit for 1 h (1:1000; Molecular Probes USA).
Next, the effect of the small molecules on neurogenesis in a P19 differentiation model was measured. […] Neuronal differentiation is marked by the expression of the neuronal marker MAP-2, while the addition of BMP-2 reduces the levels of this marker. Addition of the murine anti-BMP-2/4 monoclonal antibody reverses the effect of BMP-2 and induces acquisition of neuronal phenotype. Thus, the effect of SM1, SM7 and SM9 on the expression of the neuronal marker MAP-2 in P19 cells was examined in the presence of RA and BMP-2. Three concentrations of the molecules were tested: 0.625 μM, 1.25 μM and 2.5 μM.

RR-EAE mice [1] = assay: De novo expression of doublecortin (BrdU+DCX+ cells) in SVZ and SGZ of RR-EAE mice; type: in vivo
From the text: FIGS. 10A-10B—The effect of SM1, SM7, SM9 and SM6 on de novo expression of neuroblasts marker doublecortin in the SVZ. FIG. 10A—Immunofluorescence images showing the labeling of BrdU and doublecortin (DCX) in the SVZ. Images were obtained using Zeiss 710 confocal microscope, coronal sections. LV, lateral ventricle, SVZ, subventricular zone. Scale bar for images: a, c, e, g, i, k, m, o=100 μm (magnification×10), and images: b, d, f, h, j, 1, n, p=20 μm (magnification×63). FIG. 10B: Quantification of BrdU^+ DOC^+ cells in the SVZ. Analysis was performed using image J software on 3 sections from each mouse (3 mice from each group, total n=9). Values are given as mean±SEM and the results of Student's t-test are represented as *p<0.05.
FIGS. 11A-11B—The effect of SM1, SM7, SM9 and SM6 on de novo expression of doublecortin in the SGZ. FIG. 11A: are immunohistochemical images showing the labeling of BrdU^+DCX^+ cells in the SGZ. Images were obtained using Olympus 8.1 microscope (magnification×10). FIG. 11B: Quantification of BrdU^+DCX^+ cells in the SGZ. Analysis was performed using image J software on 3 sections from each mouse (3 mice from each group, total n=9). Values are given as mean±SEM and the results of Student's t-test are represented as *p<0.05.
RR-EAE induced mice were intraperitoneally injected with 250 μg/mouse (Low-L) or 500 μg/mouse (High-H) of the small molecules SM1, SM7, SM9, SM6, or the corresponding vehicle. The SMs were injected each day starting on day 9 post immunization for 30 days. For immunohistochemical analysis, 3 mice of each group were intraperitoneally injected daily with bromo-2′-deoxyuridine (BrdU) starting from day 9 post immunization for 8 following days.
Next, the amount of BrdU DCX cells in the SGZ of mice was evaluated. FIGS. 11A-11B show immunohistochemical labeling of BrdU DCX cells in mice with EAE after treatment with the SMs or with vehicle.

RR-EAE mice [2] = assay: Demyelination in EAE: LFB-H&E staining of lumbar spinal cord; type: in vivo; details: day 48 post immunization (vehicle 28.3±1.8%)
Procedure: FIGS. 6A-6B—The effect of SM1, SM6, SM7 and SM9 on demyelination. FIG. 6A: Representative images of the lumbar spinal cord section, stained with LFB (anterio lateral funiculus), of mice treated with vehicle, SM1 10 mg/kg/day, SM1 20 mg/kg/day, SM7 10 mg/kg/day, SM9 10 mg/kg/day, SM9 20 mg/kg/day, SM6 10 mg/kg/day and SM6 20 mg/kg/day. FIG. 6B: Quantification of myelinated area. […] Quantification was performed using Image J software on 6 mice/group and 3 sections/mouse.
The direct effect of the SMs on the demyelination and remyelination processes was analyzed. Spinal cord was removed from 6 mice of each group and the lumbar segment of the spinal cord was sectioned (10 μm coronal paraffin section) and was processed for LFB-H&E (luxol fast blue with H&E) for myelin and infiltrates staining.

[3] = high dose (H) 500 μg/mouse i.p. daily from day 9 for 30 days
[4] = low dose (L) 250 μg/mouse i.p. daily from day 9 for 30 days
[5] = low dose (L) 250 μg/mouse i.p. daily

SMILES	MAP-2+ cells (P19 cells; RA + rhBMP-2 + SM 2.5 μM)	effect on neuronal phenotype (number of MAP-2+ cells) vs. RA+BMP-2 (P19 cells)	BrdU+DCX+ cells in the SVZ vs. vehicle (RR-EAE mice [1]; [3])	BrdU+DCX+ cells in the SVZ vs. vehicle (RR-EAE mice [1]; [4])	% myelinated area (LFB-stained area of total spinal cord section) (RR-EAE mice [2]; 10 mg/kg)	BrdU+DCX+ cells in the SGZ vs. vehicle (RR-EAE mice [1]; [5])	MAP-2+ cells (P19 cells; RA + rhBMP-2 + SM 1.25 μM)	% myelinated area (LFB-stained area of total spinal cord section) (RR-EAE mice [2]; 20 mg/kg)	MAP-2+ cells (P19 cells; RA + rhBMP-2 + SM 0.625 μM (low concentration))	BrdU+DCX+ cells in the SGZ vs. vehicle (RR-EAE mice [1]; high dose (H) 500 μg/mouse i.p. daily)
COC(=O)c1sccc1N/N=C(\C#N)S(=O)(=O)c1cccs1 [SM1, Methyl 3-[(2E)-2-[cyano(thiophen-2-ylsulfonyl)methylidene]hydrazinyl]thiophene-2-carboxylate]	62.2±3.9%	reversed the effect of BMP-2; also recorded: induced neuronal phenotype at all examined concentrations	trend for increased induction	trend for increased induction	–	–	–	–	–	–
O=C(Nc1cccc(C(F)(F)F)c1)c1ccc([N+](=O)[O-])o1 [SM6, N2-[3-(trifluoromethyl)phenyl)-5-nitro-2-furamide]	–	–	trend for increased induction	–	34.8±1.6%	trend for increased	–	–	–	–
N#Cc1c(O)nsc1Nc1ccccc1C(F)(F)F [SM7, 3-hydroxy-5-[2-(trifluoromethyl)aniline]isothiazole-4-carbonitrile]	No significant effect	reversed the effect of BMP-2; also recorded: induced neuronal phenotype at both the low and the mild concentrations	–	–	34.0±0.8%	trend for increased	76.1±3.1%	–	–	–
CS(=O)(=O)c1noc(-c2ccc(Cl)cc2)c1C#N [SM9, 5-(4-chlorophenyl)-3-methylsulfonyl-1,2-oxazole-4-carbonitrile]	80.6±10.0%	reversed the effect of BMP-2	trend for increased induction	significant increase	–	trend for increased	76.4±12.6%	34.6±1.6%	not effective	significant increased induction
